Results taken from patent US7884136B2, “Modified-release formulations of a bupropion salt” (Biovail Laboratories International S.R.L., priority 2005, dated 2011).

What was measured:
[1] = Shelf life stability program of bupropion HBr, 25° C./60% RH, 3 and 6 months, HPLC; format: physicochemical; conditions: Batch D00896, 25° C., R.H. 60%; for Chromatographic purity B) (HPLC) 4) 2-N-(tert-Butyl)-aminopropiophenone / Chromatographic purity B) (HPLC) 5) single unknown impurity (each): LOQ 0.02%, LOD 0.002%; for Chromatographic purity A) (HPLC) 1) 3′-Chloropropiophenone / Chromatographic purity A) (HPLC) 3) 3′-Chlorobenzoic acid / Chromatographic purity A) (HPLC) 2) 3′-Chloro-2-bromopropiophenone: LOQ 0.05%; for Chromatographic purity A) (HPLC) 1) 3′-Chloropropiophenone / Chromatographic purity A) (HPLC) 3) 3′-Chlorobenzoic acid: LOD 0.01%; for Chromatographic purity A) (HPLC) 2) 3′-Chloro-2-bromopropiophenone: LOD 0.04%
Description: The stability of bupropion HBr was studied over a longer term under conditions meant to approximate standard storage or shelf conditions. Samples were prepared in closed containers and subjected to long-term storage at 25° C.+2° C. and 60%+5% RH in a stability chamber. The samples were analyzed by HPLC prior to being placed in the stability chamber (time 0) and after 3 months and 6 months. The amounts of the main degradation products present at time 0 were compared with the amounts present at 3 months and 6 months. As shown in Table 77-79 three different batches of bupropion HBr were tested. As in Example 10 each sample was tested under two HPLC assay conditions to identify 6 impurities or groups of impurities as described in Example 10.

[2] = Accelerated stability study of bupropion HBr, closed bottles, 40° C./75% RH, 3 and 6 months, HPLC; format: physicochemical; conditions: Batch D00894, 40° C., R.H. 75%; for Chromatographic purity B) (HPLC) 4) 2-N-(tert-Butyl)-aminopropiophenone / Chromatographic purity B) (HPLC) 5) single unknown impurity (each): LOQ 0.02%, LOD 0.002%; for Chromatographic purity A) (HPLC) 1) 3′-Chloropropiophenone / Chromatographic purity A) (HPLC) 3) 3′-Chlorobenzoic acid / Chromatographic purity A) (HPLC) 2) 3′-Chloro-2-bromopropiophenone: LOQ 0.05%; for Chromatographic purity A) (HPLC) 1) 3′-Chloropropiophenone / Chromatographic purity A) (HPLC) 3) 3′-Chlorobenzoic acid: LOD 0.01%; for Chromatographic purity A) (HPLC) 2) 3′-Chloro-2-bromopropiophenone: LOD 0.04%
Description: The samples were prepared in closed bottles and placed in the stability chamber. HPLC analysis was conducted on the samples prior to placing them in the stability chamber (time 0), and after 3 months and 6 months. The amounts of the main degradation products present at time 0 were compared with those amounts present after 3 months and 6 months. […] For each sample tested, at each time period, two different HPLC assays were run. The first assay labelled chromatographic purity A, measured the percentage of three impurities 3′chloropropiophenone, 3′-Chloro-2-bromopropiophenone and 3′-Chlorobenzoic acid. The second assay, labelled chromatographic purity B, measured the percentage of 2-N-(tert-Butyl)-aminopropiophenone, a single unknown impurity and the total unknown impurities.

Br.CC(NC(C)(C)C)C(=O)c1cccc(Cl)c1 (stereo not drawn) [Bupropion•HBr]
Assay (HPLC) ([1]; 9 months): 99.4 % on d.b.
Chromatographic purity (HPLC: A + B) Total impurities ([1]; 9 months): n.q.
Chromatographic purity B) (HPLC) 6) total unknown impurities ([1]; 9 months): 6) n.q.
Description (white or almost white crystalline powder) ([1]; 9 months): conform
Identification IR, HPLC ([1]; 9 months): positive
Water content (K.F.) ([1]; 9 months): 0.04%
Chromatographic purity B) (HPLC) 4) 2-N-(tert-Butyl)-aminopropiophenone ([1]; 9 months): 4) n.d.
Chromatographic purity B) (HPLC) 5) single unknown impurity (each) ([1]; 9 months): 5) n.q.
Chromatographic purity A) (HPLC) 1) 3′-Chloropropiophenone ([1]; 9 months): 1) n.q.
Chromatographic purity A) (HPLC) 3) 3′-Chlorobenzoic acid ([1]; 9 months): 3) n.q.
Chromatographic purity A) (HPLC) 2) 3′-Chloro-2-bromopropiophenone ([1]; 9 months): 2) n.d.
Assay (HPLC) ([1]; 12 months): 100.3 % on d.b.
Chromatographic purity (HPLC: A + B) Total impurities ([1]; 12 months): 0.1%
Chromatographic purity B) (HPLC) 6) total unknown impurities ([1]; 12 months): 6) 0.07%
Description (white or almost white crystalline powder) ([1]; 12 months): conform
Identification IR, HPLC ([1]; 12 months): positive
Water content (K.F.) ([1]; 12 months): 0.03%
Chromatographic purity B) (HPLC) 4) 2-N-(tert-Butyl)-aminopropiophenone ([1]; 12 months): 4) 0.05%
Chromatographic purity B) (HPLC) 5) single unknown impurity (each) ([1]; 12 months): 5) 0.07%
Chromatographic purity A) (HPLC) 1) 3′-Chloropropiophenone ([1]; 12 months): 1) n.d.
Chromatographic purity A) (HPLC) 3) 3′-Chlorobenzoic acid ([1]; 12 months): 3) n.q.
Chromatographic purity A) (HPLC) 2) 3′-Chloro-2-bromopropiophenone ([1]; 12 months): 2) n.d.
Assay (HPLC) ([1]; time 0): 99.3 % on d.b.
Chromatographic purity (HPLC: A + B) Total impurities ([1]; time 0): 0.1%
Chromatographic purity B) (HPLC) 6) total unknown impurities ([1]; time 0): 6) 0.05%
Description (white or almost white crystalline powder) ([1]; time 0): conform
Identification IR, HPLC ([1]; time 0): positive
Water content (K.F.) ([1]; time 0): 0.06%
Chromatographic purity B) (HPLC) 4) 2-N-(tert-Butyl)-aminopropiophenone ([1]; time 0): 4) 0.04%
Chromatographic purity B) (HPLC) 5) single unknown impurity (each) ([1]; time 0): 5) 0.05%
Chromatographic purity A) (HPLC) 1) 3′-Chloropropiophenone ([1]; time 0): 1) n.d.
Chromatographic purity A) (HPLC) 3) 3′-Chlorobenzoic acid ([1]; time 0): 3) n.q.
Chromatographic purity A) (HPLC) 2) 3′-Chloro-2-bromopropiophenone ([1]; time 0): 2) n.d.
Assay (HPLC) ([2]; 3 month): 99.6 % on d.b.
Chromatographic purity (HPLC: A + B) Total impurities ([2]; 3 month): 0.1%
Chromatographic purity B) (HPLC) 6) total unknown impurities ([2]; 3 month): 6) 0.06%
Description (white or almost white crystalline powder) ([2]; 3 month): conform
Identification IR, HPLC ([2]; 3 month): positive
Water content (K.F.) ([2]; 3 month): 0.07%
Chromatographic purity B) (HPLC) 4) 2-N-(tert-Butyl)-aminopropiophenone ([2]; 3 month): 4) 0.03%
Chromatographic purity B) (HPLC) 5) single unknown impurity (each) ([2]; 3 month): 5) 0.04%
Chromatographic purity A) (HPLC) 1) 3′-Chloropropiophenone ([2]; 3 month): 1) n.q.
Chromatographic purity A) (HPLC) 3) 3′-Chlorobenzoic acid ([2]; 3 month): 3) n.q.
Chromatographic purity A) (HPLC) 2) 3′-Chloro-2-bromopropiophenone ([2]; 3 month): 2) n.d.
Assay (HPLC) ([2]; 6 months): 99.7 % on d.b.
Chromatographic purity (HPLC: A + B) Total impurities ([2]; 6 months): 0.1%
Chromatographic purity B) (HPLC) 6) total unknown impurities ([2]; 6 months): 6) 0.02%
Description (white or almost white crystalline powder) ([2]; 6 months): conform
Identification IR, HPLC ([2]; 6 months): positive
Water content (K.F.) ([2]; 6 months): 0.08%
Chromatographic purity B) (HPLC) 4) 2-N-(tert-Butyl)-aminopropiophenone ([2]; 6 months): 4) 0.04%
Chromatographic purity B) (HPLC) 5) single unknown impurity (each) ([2]; 6 months): 5) n.q.
Chromatographic purity A) (HPLC) 1) 3′-Chloropropiophenone ([2]; 6 months): 1) 0.05%
Chromatographic purity A) (HPLC) 3) 3′-Chlorobenzoic acid ([2]; 6 months): 3) n.q.
Chromatographic purity A) (HPLC) 2) 3′-Chloro-2-bromopropiophenone ([2]; 6 months): 2) n.d.
Assay (HPLC) ([2]; time 0): 99.6 % on d.b.
Chromatographic purity (HPLC: A + B) Total impurities ([2]; time 0): 0.1%
Chromatographic purity B) (HPLC) 6) total unknown impurities ([2]; time 0): 6) 0.04%
Description (white or almost white crystalline powder) ([2]; time 0): conform
Identification IR, HPLC ([2]; time 0): positive
Water content (K.F.) ([2]; time 0): 0.05%
Chromatographic purity B) (HPLC) 4) 2-N-(tert-Butyl)-aminopropiophenone ([2]; time 0): 4) 0.04%
Chromatographic purity B) (HPLC) 5) single unknown impurity (each) ([2]; time 0): 5) 0.04%
Chromatographic purity A) (HPLC) 1) 3′-Chloropropiophenone ([2]; time 0): 1) n.d.
Chromatographic purity A) (HPLC) 3) 3′-Chlorobenzoic acid ([2]; time 0): 3) n.q.
Chromatographic purity A) (HPLC) 2) 3′-Chloro-2-bromopropiophenone ([2]; time 0): 2) n.d.
